Activity calls are given as the source filed them. The rule behind the calls is not given here. Numbered stars: 1 amine (or outer) side, 2 acyl side, 3 side chain; on linkers, the order of the positions; unused ones are H or OH. Peptide text beside a SMILES is read from it. CO = O=C([*:1])[*:2]
Tested on: GENE-TOX genotoxicity assays, various organisms and cells
Assay: GENE-TOX mutagenicity studies
Conditions: for call: Assay Type: In vivo carcinogenicity studies
[1] = Species/Cell Type: Drosophila melanogaster, Assay Type: Sex-linked recessive lethal gene mutation, Assay Code: SRL+, Evaluation Type: Evaluation A (Pre-1980)
[2] = Species/Cell Type: Nonhuman, Assay Code: CCG+L, Evaluation Type: Evaluation A (Pre-1980)
[3] = Species/Cell Type: Salmonella typhimurium (one or more of the five standard strains: TA98, TA100, TA1535, TA1537, and TA1538), Assay Type: Histidine reverse gene mutation, Ames assay, Assay Code: SAL+, Evaluation Type: Evaluation A (Pre-1980)
[4] = Species/Cell Type: Salmonella typhimurium (one or more of the five standard strains: TA98, TA100, TA1535, TA1537, and TA1538), Assay Type: Histidine reverse gene mutation, Ames assay, Assay Code: SALT, Evaluation Type: Evaluation A (Pre-1980)
[5] = Species/Cell Type: Salmonella typhimurium (one or more of the five standard strains: TA98, TA100, TA1535, TA1537, and TA1538), Assay Type: Histidine reverse gene mutation, Ames assay, Assay Code: SAL+*, Activation: With metabolic activation, Evaluation Type: Evaluation A (Pre-1980)
[6] = Species/Cell Type: Nonhuman, Assay Type: Sister-chromatid exchange (SCE) in vivo, Assay Code: SC3+, Evaluation Type: Evaluation B (Post-1980)
[7] = Species/Cell Type: Human lymphocytes, Assay Type: Sister-chromatid exchange (SCE) in vitro, Assay Code: SCL+D, Dose Response: With dose response, Evaluation Type: Evaluation B (Post-1980)
[8] = Species/Cell Type: Human, Assay Type: Sister-chromatid exchange (SCE) in vitro, Assay Code: SC1+D, Dose Response: With dose response, Evaluation Type: Evaluation B (Post-1980)
[9] = Species/Cell Type: Saccharomyces cerevisiae, Assay Type: Mitotic recombination or gene conversion, Assay Code: YEH-, Evaluation Type: Evaluation A (Pre-1980)
[10] = Species/Cell Type: Chinese hamster lung (V79) cells, Assay Type: Forward gene mutation at the HPRT or ouabain locus, Assay Code: V79+*, Activation: With metabolic activation, Evaluation Type: Evaluation A (Pre-1980)
[11] = Species/Cell Type: Nonhuman, Assay Code: CCG+, Evaluation Type: Evaluation A (Pre-1980)
[12] = Species/Cell Type: Nonhuman, Assay Type: Sister-chromatid exchange (SCE) in vitro, Assay Code: SC2+D, Dose Response: With dose response, Evaluation Type: Evaluation B (Post-1980)

With ClCCN(CCCl)c1ccc2ccccc2c1 the mutagenic call [1] was “active; positive”, the call [2] was “active; positive” and the mutagenic call [3] was “active; positive”. The mutagenic call (Species/Cell Type: Syrian hamster embryo (SA7/SHE) cells, Assay Type: Cell transformation, viral enhanced, Assay Code: CT7+, Evaluation Type: Evaluation A (Pre-1980)) was “active; positive”.

With OCCCCO the mutagenic call (Species/Cell Type: Drosophila melanogaster, Assay Type: Sex-linked recessive lethal gene mutation, Assay Code: SRLT, Evaluation Type: Evaluation A (Pre-1980)) was “no conclusion”.

CCNC(=O)N(CC)N=O was tested, and the mutagenic call (Species/Cell Type: Zea mays (corn), Assay Type: Gene mutation, Assay Code: ZEM+D, Dose Response: With dose response, Evaluation Type: Evaluation A (Pre-1980)) was “active; positive”.

In the case of CN(C#N)N=O, the mutagenic call (Species/Cell Type: Nonhuman, Assay Type: Chromosome aberrations in vitro, Assay Code: CY&+, Evaluation Type: Evaluation A (Pre-1980)) is reported as “active; positive”, the mutagenic call [3] is reported as “active; positive” and the mutagenic call (Species/Cell Type: Syrian hamster embryo (SHE) cells, Assay Type: Cell transformation, clonal assay, Assay Code: CTC+, Evaluation Type: Evaluation A (Pre-1980)) is reported as “active; positive”.

COc1c(O)c2c(c3cc(C(=O)N4CCc5c4c(O)c(OC)c4[nH]c(C(=O)N6C[C@H]7C[C@@]78C6=CC(=O)c6[nH]cc(C)c68)cc54)[nH]c13)CCN2C(N)=O was tested, and the mutagenic call (Species/Cell Type: Mammalian polychromatic erythrocytes, Assay Type: Micronucleus test, chromosome aberrations, Assay Code: MNT+, Evaluation Type: Evaluation B (Post-1980)) was “active; positive”.

With [I][Hg][I] the mutagenic call (Species/Cell Type: Nonhuman, Assay Type: Sister-chromatid exchange (SCE) in vitro, Assay Code: SC2-, Evaluation Type: Evaluation B (Post-1980)) was “inactive; negative”.

For CC1(C)N=C(N)N=C(N)N1OCCCOc1cc(Cl)c(Cl)cc1Cl, the mutagenic call [4] was “no conclusion”.

COc1ccc2c3ccc(OC)cc3c3c4cc(OC)ccc4c4ccc(OC)cc4c3c2c1 was tested, and the mutagenic call [5] was “active; positive”.

In the case of Cc1c2ccccc2cc2c(F)cc3ccccc3c12, the mutagenic call (Species/Cell Type: Mouse prostate cells, Assay Type: Cell transformation, Assay Code: CTM+, Evaluation Type: Evaluation A (Pre-1980)) is reported as “active; positive”.

For C1CN1P1(N2CC2)=NP(N2CC2)(N2CC2)=NP(N2CC2)(N2CC2)=N1, the mutagenic call (Species/Cell Type: Neurospora crassa, Assay Type: Forward gene mutation, Assay Code: NEF+, Evaluation Type: Evaluation A (Pre-1980)) was “active; positive” and the mutagenic call [6] was “active; positive”.

With CN(C)N=Nc1ccc(Br)cc1 the mutagenic call [1] was “active; positive”, the mutagenic call (Species/Cell Type: Mammalian polychromatic erythrocytes, Assay Type: Micronucleus test, chromosome aberrations, Assay Code: MNT+, Evaluation Type: Evaluation A (Pre-1980)) was “active; positive” and the mutagenic call (Species/Cell Type: Saccharomyces cerevisiae, Assay Type: Mitotic recombination or gene conversion, Assay Code: YEC+, Evaluation Type: Evaluation A (Pre-1980)) was “active; positive”.

In the case of ClC(Cl)Br, the mutagenic call [7] is reported as “active; positive”, the mutagenic call [8] is reported as “active; positive” and the mutagenic call (Species/Cell Type: Nonhuman, Assay Type: Sister-chromatid exchange (SCE) in vivo, Assay Code: SC3+D, Dose Response: With dose response, Evaluation Type: Evaluation B (Post-1980)) is reported as “active; positive”. For the same molecule, the mutagenic call [9] was “inactive; negative” and the mutagenic call [3] was “active; positive”.

For CCC[CH2][Sn]([CH2]CCC)([CH2]CCC)[O][Sn]([CH2]CCC)([CH2]CCC)[CH2]CCC, the mutagenic call (Species/Cell Type: Mammalian polychromatic erythrocytes, Assay Type: Micronucleus test, chromosome aberrations, Assay Code: MNT+U, Dose Response: Unconfirmed positive response, Evaluation Type: Evaluation B (Post-1980)) was “active; positive”.

In the case of CN(C)N=Nc1c(F)cc(F)cc1F, the mutagenic call [1] is reported as “active; positive”.

With Cc1ccc2cc3c(cc(-c4ccccc4O)c4ccccc43)c3c2c1CC3 the mutagenic call (Species/Cell Type: Chinese hamster lung (V79) cells, Assay Type: Forward gene mutation at the HPRT or ouabain locus, Assay Code: V79-, Evaluation Type: Evaluation A (Pre-1980)) was “inactive; negative”.

For C/C=C\C(=O)O[C@@H]1C[C@H]2O[C@@H]3C=C(C)[C@@H]4O[C@@H]4[C@]3(C)C1(C)[C@]21CO1, the mutagenic call [4] was “no conclusion”.

With Oc1cccc2cc3cccc(O)c3c(O)c12 the mutagenic call (Species/Cell Type: Escherichia coli polA (W3119 vs P3478), Assay Type: Rec-assay, DNA effects (bacterial DNA repair), Assay Code: RE1+, Evaluation Type: Evaluation A (Pre-1980)) was “active; positive”, the mutagenic call (Species/Cell Type: Fischer rat embryo (RLV/1706) cells, Assay Type: Cell transformation, viral enhanced, Assay Code: CTR+, Evaluation Type: Evaluation A (Pre-1980)) was “active; positive” and the mutagenic call (Species/Cell Type: Mammalian polychromatic erythrocytes, Assay Type: Micronucleus test, chromosome aberrations, Assay Code: MNT-, Evaluation Type: Evaluation B (Post-1980)) was “inactive; negative”. The mutagenic call (Species/Cell Type: Mouse (BALB/c-3T3) cells, Assay Type: Cell transformation, Assay Code: CTB-, Evaluation Type: Evaluation A (Pre-1980)) was “inactive; negative”, the call (Species/Cell Type: Nonhuman, Assay Code: CCGT, Evaluation Type: Evaluation A (Pre-1980)) was “no conclusion” and the mutagenic call (Species/Cell Type: Salmonella typhimurium (one or more of the five standard strains: TA98, TA100, TA1535, TA1537, and TA1538), Assay Type: Histidine reverse gene mutation, Ames assay, Assay Code: SAL-, Evaluation Type: Evaluation A (Pre-1980)) was “inactive; negative”. For the same molecule, the mutagenic call (Species/Cell Type: Salmonella typhimurium, Assay Type: Forward and reverse gene mutation, host-mediated assay, Assay Code: HMA-, Evaluation Type: Evaluation A (Pre-1980)) was “inactive; negative” and the mutagenic call (Species/Cell Type: Syrian hamster embryo (SHE) cells, Assay Type: Cell transformation, clonal assay, Assay Code: CTC-, Evaluation Type: Evaluation A (Pre-1980)) was “inactive; negative”.

With Cc1cc(C(=O)NNCc2ccccc2)no1 the mutagenic call [6] was “active; positive”.

In the case of OCc1c2ccccc2c2ccc3cccc4ccc1c2c43, the mutagenic call [10] is reported as “active; positive”, the mutagenic call [1] is reported as “active; positive” and the call [11] is reported as “active; positive”. For the same molecule, the mutagenic call [5] was “active; positive”.

With CC1CCN(N=O)CC1 the mutagenic call (Species/Cell Type: Drosophila melanogaster, Assay Type: Aneuploidy, partial sex chromosome loss, chromosome aberrations, Assay Code: DAPT, Evaluation Type: Evaluation A (Pre-1980)) was “no conclusion”, the mutagenic call (Species/Cell Type: Drosophila melanogaster, Assay Type: Aneuploidy, whole sex chromosome loss, chromosome aberrations, Assay Code: DACT, Evaluation Type: Evaluation A (Pre-1980)) was “no conclusion” and the mutagenic call [1] was “active; positive”. The mutagenic call (Species/Cell Type: Saccharomyces cerevisiae, Assay Type: Forward gene mutation, Assay Code: YEF+*, Activation: With metabolic activation, Evaluation Type: Evaluation A (Pre-1980)) was “active; positive” and the mutagenic call [5] was “active; positive”.

In the case of O[C@H]1C=Cc2c(cc3ccc4cccc5ccc2c3c45)[C@@H]1O, the mutagenic call [10] is reported as “active; positive”, the call [11] is reported as “active; positive” and the call [2] is reported as “active; positive”. For the same molecule, the mutagenic call (Species/Cell Type: Nonhuman, Assay Type: Sister-chromatid exchange (SCE) in vitro, Assay Code: SC2+D, Dose Response: With dose response, Evaluation Type: Evaluation A (Pre-1980)) was “active; positive”, the mutagenic call [12] was “active; positive” and the mutagenic call [5] was “active; positive”.

With NP(=S)(N1CC1)N1CC1 the mutagenic call [7] was “active; positive”, the mutagenic call [8] was “active; positive” and the mutagenic call [12] was “active; positive”.

For CC(C)[C@H](NC(=O)[C@H](CCCN=C(N)N)NC(=O)N[C@@H](Cc1ccccc1)C(=O)O)C(=O)N[C@H](C=O)CCCN=C(N)N ({Phe-CO}-Arg-Val-Arg-aldehyde), the mutagenic call (Species/Cell Type: Human, Assay Type: Sister-chromatid exchange (SCE) in vitro, Assay Code: SC1+, Evaluation Type: Evaluation B (Post-1980)) was “active; positive”, the mutagenic call (Species/Cell Type: Mouse (C3H/10T1/2) cells, Assay Type: Cell transformation, Assay Code: CTH-, Evaluation Type: Evaluation A (Pre-1980)) was “inactive; negative” and the mutagenic call (Species/Cell Type: Nonhuman, Assay Type: Sister-chromatid exchange (SCE) in vitro, Assay Code: SC2T, Evaluation Type: Evaluation B (Post-1980)) was “no conclusion”.

With COc1nc2c(c(=O)n(C)c(=O)n2C)n1C the mutagenic call (Species/Cell Type: Allium cepa, Assay Type: Chromosome aberrations, Assay Code: ALC+D, Dose Response: With dose response, Evaluation Type: Evaluation A (Pre-1980)) was “active; positive” and the mutagenic call (Species/Cell Type: Vicia faba, Assay Type: Chromosome aberrations, Assay Code: VIC+, Evaluation Type: Evaluation A (Pre-1980)) was “active; positive”.

In the case of O=[N+]([O-])[O-].O=[N+]([O-])[O-].[Mn+2], the mutagenic call (Species/Cell Type: Bacillus subtilis (H17 vs M45), Assay Type: Rec-assay, spot test, DNA effects (bacterial DNA repair), Assay Code: REW+, Evaluation Type: Evaluation A (Pre-1980)) is reported as “active; positive”.

In the case of C[C@@H]1[C@H](O)[C@@H](C)/C=C/C=C/CC/C=C/C=C/C=C/C=C/C(O[C@H]2O[C@H](C)[C@@H](O)[C@H](N)[C@@H]2O)CC2O[C@](O)(CC(O)C(O)CCC(O)CC(O)CC(O)CC(=O)O[C@H]1C)CC(O)C2C(=O)O (some centres undefined), the mutagenic call (Species/Cell Type: Neurospora crassa, Assay Type: Aneuploidy, chromosome aberrations, Assay Code: NEN-, Evaluation Type: Evaluation A (Pre-1980)) is reported as “inactive; negative”.

NCC[C@H](O)C(=O)N[C@@H]1C[C@H](N)[C@@H](O[C@H]2O[C@H](CN)[C@@H](O)[C@H](O)[C@H]2O)[C@H](O)[C@H]1O[C@H]1O[C@H](CO)[C@@H](O)[C@H](N)[C@H]1O was tested, and the mutagenic call [9] was “inactive; negative”.

For CCCN(CCC)C(=O)SCC (tested in a mixture with another compound), the mutagenic call (Species/Cell Type: Zea mays (corn), Assay Type: Gene mutation, Assay Code: ZEM-, Evaluation Type: Evaluation A (Pre-1980)) was “inactive; negative”.
